Source: patent publication US20200297670A1, “Capsaicin Sequential Dosing Method for Treatment of Morton's Neuroma Pain” (Centrexion Therapeutics Corporation, priority 2016, published 2020)

Tested on: pain due to an intermetatarsal neuroma
Experiment: Average walking pain due to intermetatarsal neuroma on Numeric Pain Rating Scale (NPRS) after two injected doses of trans-capsaicin
Type: in vivo, human
Conditions: for reduction in patients' reported average walking pain due to the intermetatarsal neuroma (NPRS): 27 adult human patients
Description: Twenty-seven adult, human patients experiencing pain due to an intermetatarsal neuroma were treated by administering a first dose of trans-capsaicin (200 μg of trans-capsaicin) and then, after at least 11 weeks, administered a second dose of trans-capsaicin (200 μg of trans-capsaicin). Patients rated their average walking pain due to the intermetatarsal neuroma on a Numeric Pain Rating Scale (NPRS), where pain is characterized by the patient on a scale of zero to ten (with zero being “no pain”, and ten being “worst possible pain”). Patients rated their average walking pain due to the intermetatarsal neuroma on (i) just prior to receiving the injection of trans-capsaicin and (ii) four (4) weeks after receiving each injection of trans-capsaicin. Patients reported a reduction in average walking pain due to the intermetatarsal neuroma when measured at four weeks after injection of trans-capsaicin for each administration of trans-capsaicin.
trans-Capsaicin was administered to twenty-seven (27) adult, human patients experiencing pain due to an intermetatarsal neuroma according to the procedures described below. Prior to administering the first dose of trans-capsaicin in this study, patients reported an average walking pain due to the intermetatarsal neuroma of at least four on the Numeric Pain Rating Scale (NPRS). Patients received two doses of trans-capsaicin.
trans-Capsaicin was injected in the amount of 200 μg per dose by ultrasound-guided needle placement into the area of the neuroma (but not inserting the needle into the intermetatarsal neuroma itself). The dose of trans-capsaicin was injected as a 2 mL solution containing trans-capsaicin at a concentration of 100 μg/mL. […]
Pain due to the intermetatarsal neuroma was evaluated by having patients rate their average walking pain due to the intermetatarsal neuroma on a Numeric Pain Rating Scale (NPRS), where pain is characterized by the patient on a scale of zero to ten (with zero being “no pain”, and ten being “worst possible pain”). […]

Compound: COc1cc(CNC(=O)CCCCC=CC(C)C)ccc1O [trans-capsaicin, N-[(4-hydroxy-3-methoxyphenyl)methyl]-8-methylnon-6-enamide]
- reduction in patients' reported average walking pain due to the intermetatarsal neuroma (NPRS) (first dose 200 μg trans-capsaicin injected into area of neuroma, four weeks after injection vs prior to first dose): 1.6 point
- reduction in patients' reported average walking pain due to the intermetatarsal neuroma (NPRS) (second dose 200 μg trans-capsaicin (83 to 196 days after first dose), four weeks after injection vs just prior to second dose): 2.3 point
- effect of repeat injection on pain due to an intermetatarsal neuroma (repeat injection, 200 μg per dose, adult human patients): effective in ameliorating pain
